What was measured:
[1] = Half-life in rat at 30 mg/kg dose administered orally; conditions: in vivo, po
[2] = In vitro metabolic stability at 5 uM was determined by incubating with human liver microsomes at 37 degree C; format: ADME, Microsome
[3] = molecular target: T1, Peroxisome proliferator-activated receptor gamma (Homo sapiens, UniProt P37231)
T1 sequence (P37231 whole entry): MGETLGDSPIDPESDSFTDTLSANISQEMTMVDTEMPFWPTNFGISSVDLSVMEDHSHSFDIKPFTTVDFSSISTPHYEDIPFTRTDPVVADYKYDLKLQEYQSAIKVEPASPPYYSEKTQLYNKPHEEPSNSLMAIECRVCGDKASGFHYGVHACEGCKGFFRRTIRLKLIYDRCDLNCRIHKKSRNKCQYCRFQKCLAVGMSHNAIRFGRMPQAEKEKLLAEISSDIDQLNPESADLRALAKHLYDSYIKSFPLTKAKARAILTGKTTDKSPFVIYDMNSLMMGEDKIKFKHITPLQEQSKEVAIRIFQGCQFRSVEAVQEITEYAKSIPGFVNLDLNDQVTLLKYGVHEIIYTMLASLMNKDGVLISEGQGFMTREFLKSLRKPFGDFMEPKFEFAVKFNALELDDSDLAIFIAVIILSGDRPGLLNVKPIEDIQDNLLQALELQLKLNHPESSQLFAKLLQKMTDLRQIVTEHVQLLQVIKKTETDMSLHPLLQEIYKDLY
Description: Agonistic activity against PPAR (peroxisome proliferator activated receptor gamma) in Suarus chinesis

[4] = Area under curve was evaluated in rat at 3 mg/kg dose administered intravenously; format: ADME, organism-based; set-up: dose 3 mg/kg, route intravenous; conditions: in vivo, iv
[5] = Oral bioavailability in rat (dose 30 mg/kg); format: ADME, organism-based; conditions: in vivo
[6] = Area under curve was evaluated in rat at 30 mg/kg dose administered orally; conditions: in vivo, po

| Compound | EC50 [3] [nM] | also measured |
| --- | --- | --- |
| CN1C(=O)C(CCOc2ccccc2CC(=O)O)Oc2ccccc21 (centres undefined) | > 5000 | – |
| CNC(=O)CCCN1C(=O)C(CCOc2ccccc2CC(=O)O)Oc2ccccc21 (centres undefined) | > 5000 | – |
| CC(C)N1C(=O)C(CCOc2ccccc2CC(=O)O)Oc2ccccc21 (centres undefined) | > 5000 | – |
| CC(O)CCCCN1C(=O)C(CCOc2ccccc2CC(=O)O)Oc2ccccc21 (centres undefined) | 1000 | – |
| CCCCCCN1C(=O)[C@H](CCOc2ccccc2CC(=O)O)Oc2ccccc21 | 1200 | – |
| CCCN1C(=O)C(CCOc2ccccc2CC(=O)O)Oc2ccccc21 (centres undefined) | ~5000 | – |
| CC(C)CN1C(=O)C(CCOc2ccccc2CC(=O)O)Oc2ccccc21 (centres undefined) | ~5000 | – |
| CC(C)(O)CCCCN1C(=O)C(CCOc2ccccc2CC(=O)O)Oc2ccccc21 (centres undefined) | 644 | – |
| CC(F)(F)CCCCN1C(=O)[C@H](CCOc2ccccc2CC(=O)O)Oc2ccccc21 | 1000 | – |
| CCCNC(=O)CN1C(=O)C(CCOc2ccccc2CC(=O)O)Oc2ccccc21 (centres undefined) | > 5000 | – |
| CC(F)(F)CCCCCN1C(=O)C(CCOc2ccccc2CC(=O)O)Oc2ccccc21 (centres undefined) | 534 | – |
| CCCCN1C(=O)C(CCOc2ccccc2CC(=O)O)Oc2ccccc21 (centres undefined) | ~5000 | – |
| O=C(O)Cc1ccccc1OCCC1Oc2ccccc2N(CC(=O)O)C1=O (centres undefined) | > 5000 | – |
| CC(C)(CCCCN1C(=O)C(CCOc2ccccc2CC(=O)O)Oc2ccccc21)C(=O)O (centres undefined) | 1000 | – |
| CCOCCCN1C(=O)C(CCOc2ccccc2CC(=O)O)Oc2ccccc21 (centres undefined) | ~5000 | – |
| C/C(CCCCN1C(=O)C(CCOc2ccccc2CC(=O)O)Oc2ccccc21)=N\O (centres undefined) | 10 | half-life [1]: 4.2 h; half-life at 5 µM [2]: 2.47 h; AUC [4]: 19.9 µM·h; bioavailability [5]: 16% |
| O=C(O)CCCCN1C(=O)C(CCOc2ccccc2CC(=O)O)Oc2ccccc21 (centres undefined) | > 5000 | – |
| NC(=O)CCCCN1C(=O)C(CCOc2ccccc2CC(=O)O)Oc2ccccc21 (centres undefined) | > 5000 | – |

| Compound | EC50 [3] [nM] | also measured |
| --- | --- | --- |
| O=C(O)CCCCCN1C(=O)C(CCOc2ccccc2CC(=O)O)Oc2ccccc21 (centres undefined) | > 5000 | – |
| O=C(O)Cc1ccccc1OCCC1Oc2ccccc2N(CCC2CCCCC2)C1=O (centres undefined) | 300 | – |
| NC(=O)CCCCCN1C(=O)C(CCOc2ccccc2CC(=O)O)Oc2ccccc21 (centres undefined) | ~5000 | – |
| CS(=O)(=O)NCCCCCCN1C(=O)C(CCOc2ccccc2CC(=O)O)Oc2ccccc21 (centres undefined) | > 5000 | – |
| O=C(O)Cc1ccccc1OCCC1Oc2ccccc2N(CCCCCO)C1=O (centres undefined) | 1000 | – |
| O=C(O)Cc1ccccc1OCCC1Oc2ccccc2N(CCCC2CCCC2)C1=O (centres undefined) | 2700 | – |
| O=C(O)Cc1ccccc1OCC[C@@H]1Oc2ccccc2N(CCCCCCF)C1=O | 570 | – |
| CC(C)(C)CCCCN1C(=O)C(CCOc2ccccc2CC(=O)O)Oc2ccccc21 (centres undefined) | 1000 | – |
| O=C(O)Cc1ccccc1OCCC1Oc2ccccc2N(CCC2CCCC2)C1=O (centres undefined) | ~5000 | – |
| CCCSCCN1C(=O)C(CCOc2ccccc2CC(=O)O)Oc2ccccc21 (centres undefined) | 380 | – |
| O=C(O)Cc1ccccc1OCCC1Oc2ccccc2N(CCO)C1=O (centres undefined) | > 5000 | – |
| CC(=O)NCCCCCCN1C(=O)C(CCOc2ccccc2CC(=O)O)Oc2ccccc21 (centres undefined) | > 5000 | – |
| CO/N=C(\C)CCCCN1C(=O)C(CCOc2ccccc2CC(=O)O)Oc2ccccc21 (centres undefined) | ~5000 | – |
| CCCCCCCCCCN1C(=O)C(CCOc2ccccc2CC(=O)O)Oc2ccccc21 (centres undefined) | 1000 | – |
| O=C(O)Cc1ccccc1OCCC1Oc2ccccc2N(CCCCCCCF)C1=O (centres undefined) | 718 | – |
| CCN1C(=O)C(CCOc2ccccc2CC(=O)O)Oc2ccccc21 (centres undefined) | > 5000 | – |
| CCCCCCCCCN1C(=O)C(CCOc2ccccc2CC(=O)O)Oc2ccccc21 (centres undefined) | ~5000 | – |

The remaining compounds from weak to strong by EC50 [3], led by results:

| EC50 [3] [nM] | Compound | also measured |
| --- | --- | --- |
| 359 | CC(C)(C#N)CCCCN1C(=O)C(CCOc2ccccc2CC(=O)O)Oc2ccccc21 (centres undefined) | – |
| 300 | CCCCCCCCN1C(=O)C(CCOc2ccccc2CC(=O)O)Oc2ccccc21 (centres undefined) | – |
| 295 | CC(F)(F)CCCCN1C(=O)[C@@H](CCOc2ccccc2CC(=O)O)Oc2ccccc21 | – |
| 274 | COCCCCN1C(=O)[C@@H](CCOc2ccccc2CC(=O)O)Oc2ccccc21 | half-life [1]: 6.7 h; half-life at 5 µM [2]: > 8.33 h; AUC [4]: 88 µM·h; bioavailability [5]: 41% |
| 274 | COCCCCN1C(=O)C(CCOc2ccccc2CC(=O)O)Oc2ccccc21 (centres undefined) | – |
| 264 | CC(=O)CCCCCN1C(=O)C(CCOc2ccccc2CC(=O)O)Oc2ccccc21 (centres undefined) | – |
| 260 | CC(=O)CCCCN1C(=O)C(CCOc2ccccc2CC(=O)O)Oc2ccccc21 (centres undefined) | half-life [1]: 9.8 h; half-life at 5 µM [2]: 0.85 h; AUC [4]: 5.8 µM·h; bioavailability [5]: 27% |
| 243 | CCCCCN1C(=O)C(CCOc2ccccc2CC(=O)O)Oc2ccccc21 (centres undefined) | – |
| 234 | CCCCCCCN1C(=O)C(CCOc2ccccc2CC(=O)O)Oc2ccccc21 (centres undefined) | – |
| 208 | C=CCCCCN1C(=O)C(CCOc2ccccc2CC(=O)O)Oc2ccccc21 (centres undefined) | – |
| 200 | O=C(O)Cc1ccccc1OCCC1Oc2ccccc2N(CCCCCCO)C1=O (centres undefined) | half-life [1]: 0.6 h; half-life at 5 µM [2]: 0.95 h; AUC [4]: 2.5 µM·h; bioavailability [5]: 4% |
| 179 | CC(F)(F)CCCCN1C(=O)C(CCOc2ccccc2CC(=O)O)Oc2ccccc21 (centres undefined) | – |
| 152 | O=C(O)Cc1ccccc1OCC[C@H]1Oc2ccccc2N(CCCCCCF)C1=O | half-life [1]: 7.9 h; half-life at 5 µM [2]: 1.85 h; AUC [4]: 93 µM·h; bioavailability [5]: 39% |
| 149 | O=C(O)Cc1ccccc1OCCC1Oc2ccccc2N(CCCCCCCO)C1=O (centres undefined) | half-life [1]: 7 h; half-life at 5 µM [2]: 1.27 h; AUC [4]: 2.3 µM·h; bioavailability [5]: 13% |
| 117 | O=C(O)Cc1ccccc1OCCC1Oc2ccccc2N(CCCCCCF)C1=O (centres undefined) | half-life [1]: 16 h; half-life at 5 µM [2]: 1.27 h; AUC [4]: 84 µM·h; bioavailability [5]: 100% |
| 100 | CCCCCCN1C(=O)C(CCOc2ccccc2CC(=O)O)Oc2ccccc21 (centres undefined) | AUC [6]: 406 µM·h; half-life [1]: 14 h; half-life at 5 µM [2]: 0.883 h; bioavailability [5]: 115% |
| 100 | CCCCCCN1C(=O)[C@@H](CCOc2ccccc2CC(=O)O)Oc2ccccc21 | half-life [1]: 14.5 h; half-life at 5 µM [2]: 1.22 h; AUC [4]: 327 µM·h; bioavailability [5]: 95% |
| 79 | CC(C)CCCCN1C(=O)C(CCOc2ccccc2CC(=O)O)Oc2ccccc21 (centres undefined) | – |
